The results in this text go back to patent US20210198204A1, “PRODRUGS OF KALLIKREIN INHIBITORS” (BioCryst Pharmaceuticals, Inc., priority 2016, published 2021).

A short description of the data set: Plasma pharmacokinetics of the parent compound after a single oral dose of prodrug. Format: in vivo. Conditions: single oral dose 10 mg/kg, fasted male Sprague Dawley rats, plasma analyzed for the parent compound. The method, then:
Plasma pharmacokinetics of compounds was determined using three male Sprague Dawley rats following a single oral dose administration. All animals were placed in a rat metabolic cage, isolated, and fasted approximately 15 hours prior to dosing. Identifying markers were placed on each animal. Each animal was weighed prior to dose administration. Animals were administered orally with a solution formulation of test compound either in water or a combination of water/propylene glycol, at a dose of 10 mg/kg. Gavage needles were attached to syringes and filled with appropriate amount of test article to be dosed. Blood samples (approximately 500 μL) were collected from three rats at pre-dose (time 0), 0.5, 1, 2, 4, 8, 12 and 24 hr, respectively, depending on study duration. Samples were collected into labeled micro centrifuge tubes containing (heparin solution) as an anticoagulant. Plasma was immediately harvested from the blood by centrifugation at 14,000 rpm for 3 min at 4° C., and stored below −70° C. until bioanalysis. Individual plasma samples were analyzed for the parent compound, 3-[2-(4-carbamimidoyl-phenylcarbamoyl)-5-methoxy-4-vinyl-phenyl]-6-(cyclopropylmethyl-carbamoyl)-pyridine-2-carboxylic acid. As shown in Table-1, the test compounds yielded varying degrees of exposure to the parent compound. The test compounds generally provided for improved bioavailability of the parent compound as compared to dosing of the parent compound in aqueous solutions.

Molecules are shown by their SMILES.

Regarding `C=Cc1cc(C(=O)Nc2ccc(C(=N)N)cc2)c(-c2ccc(C(=O)NCC3CC3)nc2C(=O)OC[C@H](C)OC(=O)[C@@H](N)C(C)C)cc1OC` (single isomer, unassigned) [Compound 18f], where the note is “study duration 8 h”, the “AUC0-last hour (area under the curve)” value is given as “A (A = 0-1,000 ng/mL)”. Still for that read-out and setting: for `C=Cc1cc(C(=O)Nc2ccc(C(=N)N)cc2)c(-c2ccc(C(=O)NCC3CC3)nc2C(=O)OC[C@@H](C)OC(=O)[C@@H](N)C(C)C)cc1OC` (single isomer, unassigned) [Compound 18g] the value was “A (A = 0-1,000 ng/mL)”; for `C=Cc1cc(C(=O)Nc2ccc(C(=N)N)cc2)c(-c2ccc(C(=O)NCC3CC3)nc2C(=O)OC)cc1OC.CS(=O)(=O)O` [Compound 1o, Methyl 3-[2-(4-carbamimidoylphenylcarbamoyl)-5-methoxy-4-vinylphenyl]-6-(cyclopropylmethylcarbamoyl)pyridine-2-carboxylate methanesulfonate], “A (A = 0-1,000 ng/mL)”. In the case of `C=Cc1cc(C(=O)Nc2ccc(C(=N)N)cc2)c(-c2ccc(C(=O)NCC3CC3)nc2C(=O)OCCN2CCOCC2)cc1OC.Cl` [Compound 2d, 2-morpholinoethyl 3-(2-((4-carbamimidoylphenyl)carbamoyl)-5-methoxy-4-vinylphenyl)-6-((cyclopropylmethyl)carbamoyl)picolinate hydrochloride], under “study duration 12 h”, the “AUC0-last hour (area under the curve)” value is reported as “A (A = 0-1,000 ng/mL)”.

Regarding `C=Cc1cc(C(=O)Nc2ccc(C(=N)NC(=O)OCCCCCC)cc2)c(-c2ccc(C(=O)NCC3CC3)nc2C(=O)OCCN2CCOCC2)cc1OC.Cl` [Compound 6a, 2-morpholinoethyl 6-((cyclopropylmethyl)carbamoyl)-3-(2-((4-(N-((hexyloxy)carbonyl)carbamimidoyl)phenyl)carbamoyl)-5-methoxy-4-vinylphenyl)picolinate hydrochloride], the “AUC0-last hour (area under the curve)” value (study duration 8 h) is “A (A = 0-1,000 ng/mL)”. On the same count and under the same terms, under `C=Cc1cc(C(=O)Nc2ccc(C(N)=NO)cc2)c(-c2ccc(C(=O)NCC3CC3)nc2C(=O)O)cc1OC` [Compound 9c, 6-((cyclopropylmethyl)carbamoyl)-3-(2-((4-(N′-hydroxycarbamimidoyl)phenyl)carbamoyl)-5-methoxy-4-vinylphenyl)picolinic acid] stands “A (A = 0-1,000 ng/mL)”.

Turning to `C=Cc1cc(C(=O)Nc2ccc(C(=N)N)cc2)c(-c2ccc(C(=O)NCC3CC3)nc2C(=O)OCOC(=O)[C@@H](N)C(C)C)cc1OC.O=C(O)C(F)(F)F` [Compound 10e, (S)-((2-amino-3-methylbutanoyl)oxy)methyl 3-(2-((4-carbamimidoylphenyl)carbamoyl)-5-methoxy-4-vinylphenyl)-6-((cyclopropylmethyl)carbamoyl)picolinate trifluoroacetate], the “AUC0-last hour (area under the curve)” value (study duration 12 h) is listed as “B (B = 1,001-10,000 ng/mL)”. In the case of `C=Cc1cc(C(=O)Nc2ccc(C(=N)N)cc2)c(-c2ccc(C(=O)NCC3CC3)nc2C(=O)OCOC(=O)OC(C)C)cc1OC` [Compound 14d, ((isopropoxycarbonyl)oxy)methyl 3-(2-((4-carbamimidoylphenyl)carbamoyl)-5-methoxy-4-vinylphenyl)-6-((cyclopropylmethyl)carbamoyl)picolinate], the “AUC0-last hour (area under the curve)” value (study duration 12 h) was “A (A = 0-1,000 ng/mL)”. Consider `C=Cc1cc(C(=O)Nc2ccc(C(=N)N)cc2)c(-c2ccc(C(=O)NCC3CC3)nc2C(=O)OCOC(=O)C(C)(C)C)cc1OC` [Compound 15d, (pivaloyloxy)methyl 3-(2-((4-carbamimidoylphenyl)carbamoyl)-5-methoxy-4-vinylphenyl)-6-((cyclopropylmethyl)carbamoyl)picolinate], for which the “AUC0-last hour (area under the curve)” value (study duration 12 h) is reported as “A (A = 0-1,000 ng/mL)”. For `C=Cc1cc(C(=O)Nc2ccc(C(=N)N)cc2)c(-c2ccc(C(=O)NCC3CC3)nc2C(=O)OCC(C)OC(=O)[C@@H](N)C(C)C)cc1OC` (stereo partly drawn) [Compound 18e, 2-(((S)-2-amino-3-methylbutanoyl)oxy)propyl 3-(2-((4-carbamimidoylphenyl)carbamoyl)-5-methoxy-4-vinylphenyl)-6-((cyclopropylmethyl)carbamoyl)picolinate], the “AUC0-last hour (area under the curve)” value (study duration 8 h) is recorded as “A (A = 0-1,000 ng/mL)”.

With `C=Cc1cc(C(=O)Nc2ccc(C(=N)N)cc2)c(-c2ccc(C(=O)NCC3CC3)nc2C(=O)OCc2oc(=O)oc2C)cc1OC` [Compound 19d, (5-methyl-2-oxo-1,3-dioxol-4-yl)methyl 3-(2-((4-carbamimidoylphenyl)carbamoyl)-5-methoxy-4-vinylphenyl)-6-((cyclopropylmethyl)carbamoyl)picolinate], the “AUC0-last hour (area under the curve)” value (study duration 12 h) was “A (A = 0-1,000 ng/mL)”. In the case of `C=Cc1cc(C(=O)Nc2ccc(C(=N)NC(=O)OC(C)C)cc2)c(-c2ccc(C(=O)NCC3CC3)nc2C(=O)OC)cc1OC` [Compound 20b, methyl 6-((cyclopropylmethyl)carbamoyl)-3-(2-((4-(N-(isopropoxycarbonyl)carbamimidoyl)phenyl)carbamoyl)-5-methoxy-4-vinylphenyl)picolinate], the “AUC0-last hour (area under the curve)” value (study duration 8 h) was “A (A = 0-1,000 ng/mL)”. Same read-out and setting: for `C=Cc1cc(C(=O)Nc2ccc(C(=N)N)cc2)c(-c2ccc(C(=O)NCC3CC3)nc2C(=O)OC(C)OC(=O)C(C)(C)C)cc1OC` (stereo not drawn) [Compound 22d, 1-(pivaloyloxy)ethyl 3-(2-((4-carbamimidoylphenyl)carbamoyl)-5-methoxy-4-vinylphenyl)-6-((cyclopropylmethyl)carbamoyl)picolinate] the value was “A (A = 0-1,000 ng/mL)”. Same read-out and setting: for `C=Cc1cc(C(=O)Nc2ccc(C(=N)N)cc2)c(-c2ccc(C(=O)NCC3CC3)nc2C(=O)O)cc1OC` [Compound 23e, 3-(2-((4-carbamimidoylphenyl)carbamoyl)-5-methoxy-4-vinylphenyl)-6-((cyclopropylmethyl)carbamoyl)picolinic acid] the value was “B (B = 1,001-10,000 ng/mL)”. As to `C=Cc1cc(C(=O)Nc2ccc(C(=N)NC(=O)OC(C)OC(C)=O)cc2)c(-c2ccc(C(=O)NCC3CC3)nc2C(=O)O)cc1OC` (stereo not drawn) [Compound 23f, 3-(2-((4-(N-((1-acetoxyethoxy)carbonyl)carbamimidoyl)phenyl)carbamoyl)-5-methoxy-4-vinylphenyl)-6-((cyclopropylmethyl)carbamoyl)picolinic acid], the “AUC0-last hour (area under the curve)” value (study duration 12 h) is “B (B = 1,001-10,000 ng/mL)”.

`C=Cc1cc(C(=O)Nc2ccc(C(=N)NC(=O)OCCCCCC)cc2)c(-c2ccc(C(=O)NCC3CC3)nc2C(=O)O)cc1OC` [Compound 24c, 6-((cyclopropylmethyl)carbamoyl)-3-(2-((4-(N-((hexyloxy)carbonyl)carbamimidoyl)phenyl)carbamoyl)-5-methoxy-4-vinylphenyl)picolinic acid]: the “AUC0-last hour (area under the curve)” value (study duration 8 h) was “A (A = 0-1,000 ng/mL)”.

Consider `C=Cc1cc(C(=O)Nc2ccc(C(=N)N)cc2)c(-c2ccc(C(=O)NCC3CC3)nc2C(=O)OC(C)OC(=O)C(C)C)cc1OC` (stereo not drawn) [Compound 29d, 1-(isobutyryloxy)ethyl 3-(2-(4-carbamimidoylphenylcarbamoyl)-5-methoxy-4-vinylphenyl)-6-(cyclopropylmethylcarbamoyl)picolinate], for which the “AUC0-last hour (area under the curve)” value (study duration 12 h) is listed as “B (B = 1,001-10,000 ng/mL)”. On the same count and under the same terms, under `C=Cc1cc(C(=O)Nc2ccc(C(=N)NC(=O)OCCCCCC)cc2)c(-c2ccc(C(=O)NCC3CC3)nc2C(=O)OCOC(=O)[C@@H](N)C(C)C)cc1OC` [Compound 31b, (S)-((2-amino-3-methylbutanoyl)oxy)methyl 6-((cyclopropylmethyl)carbamoyl)-3-(2-((4-(N-((hexyloxy)carbonyl)carbamimidoyl)phenyl)carbamoyl)-5-methoxy-4-vinylphenyl)picolinate] stands “B (B = 1,001-10,000 ng/mL)”; under `C=Cc1cc(C(=O)Nc2ccc(C(=N)NC(=O)OCC)cc2)c(-c2ccc(C(=O)NCC3CC3)nc2C(=O)OCOC(=O)[C@@H](N)C(C)C)cc1OC` [Compound 32c, (S)-((2-amino-3-methylbutanoyl)oxy)methyl 6-((cyclopropylmethyl)carbamoyl)-3-(2-((4-(N-(ethoxycarbonyl)carbamimidoyl)phenyl)carbamoyl)-5-methoxy-4-vinylphenyl)picolinate], “B (B = 1,001-10,000 ng/mL)”. As for `C=Cc1cc(C(=O)Nc2ccc(C(=N)NC(=O)OC(C)OC(=O)[C@@H](N)C(C)C)cc2)c(-c2ccc(C(=O)NCC3CC3)nc2C(=O)O)cc1OC` (stereo partly drawn) [Compound 33c, 3-(2-((4-(N-((1-(((S)-2-amino-3-methylbutanoyl)oxy)ethoxy)carbonyl)carbamimidoyl)phenyl)carbamoyl)-5-methoxy-4-vinylphenyl)-6-((cyclopropylmethyl)carbamoyl)picolinic acid], under “study duration 12 h”, the “AUC0-last hour (area under the curve)” value was “B (B = 1,001-10,000 ng/mL)”. For `C=Cc1cc(C(=O)Nc2ccc(C(=N)NC(=O)OCC)cc2)c(-c2ccc(C(=O)NCC3CC3)nc2C(=O)OCc2oc(=O)oc2C)cc1OC` [Compound 34a, (5-methyl-2-oxo-1,3-dioxol-4-yl)methyl 6-((cyclopropylmethyl)carbamoyl)-3-(2-((4-(N-(ethoxycarbonyl)carbamimidoyl)phenyl)carbamoyl)-5-methoxy-4-vinylphenyl)picolinate], the “AUC0-last hour (area under the curve)” value (study duration 8 h) is listed as “B (B = 1,001-10,000 ng/mL)”.
